Numbers after ± are expanded uncertainties.
Test: xn = mol fraction of the nth substance listed
Conditions: 101 kPa, Liquid; for speed of sound: sound velocity cell; for mass density: Vibrating tube method

CC(=O)[O-].[NH3+]CCO [2-hydroxyethylammonium acetate] + CO
speed of sound (305.65 K, x1 = 0.0492): 1161.1 ± 1.9 m/s | speed of sound (305.65 K, x1 = 0.0951): 1224.5 ± 1.7 m/s | speed of sound (305.65 K, x1 = 0.1987): 1341 ± 1.7 m/s | speed of sound (305.65 K, x1 = 0.29): 1429.3 ± 1.8 m/s | speed of sound (305.65 K, x1 = 0.3786): 1500.3 ± 1.9 m/s | speed of sound (305.65 K, x1 = 0.4825): 1575.7 ± 2 m/s | speed of sound (305.65 K, x1 = 0.6007): 1645.1 ± 2.3 m/s | speed of sound (305.65 K, x1 = 0.6711): 1681.8 ± 2.4 m/s | speed of sound (305.65 K, x1 = 0.7797): 1700.1 ± 2.6 m/s | speed of sound (305.65 K, x1 = 0.8297): 1753.7 ± 2.8 m/s | speed of sound (305.65 K, x1 = 0.9328): 1750.5 ± 3 m/s | speed of sound (305.65 K, x1 = 1): 1773.4 ± 3.2 m/s | mass density (308.15 K, x1 = 0.0492): 832.793 ± 1 kg/m3 | mass density (308.15 K, x1 = 0.0951): 875.068 ± 0.73 kg/m3 | mass density (308.15 K, x1 = 0.1987): 943.548 ± 0.62 kg/m3 | mass density (308.15 K, x1 = 0.29): 988.497 ± 0.53 kg/m3 | mass density (308.15 K, x1 = 0.3786): 1021.52 ± 0.55 kg/m3 | mass density (308.15 K, x1 = 0.4825): 1053.6 ± 0.71 kg/m3 | mass density (308.15 K, x1 = 0.6007): 1081.57 ± 1 kg/m3 | mass density (308.15 K, x1 = 0.6711): 1095.97 ± 1.2 kg/m3 | mass density (308.15 K, x1 = 0.7797): 1114.95 ± 1.6 kg/m3 | mass density (308.15 K, x1 = 0.8297): 1122.74 ± 1.8 kg/m3 | mass density (308.15 K, x1 = 0.9328): 1136.52 ± 2.2 kg/m3 | mass density (308.15 K, x1 = 1): 1143.39 ± 2.5 kg/m3 | speed of sound (308.15 K, x1 = 0.0492): 1153.3 ± 1.9 m/s | speed of sound (308.15 K, x1 = 0.0951): 1217 ± 1.7 m/s | speed of sound (308.15 K, x1 = 0.1987): 1334 ± 1.7 m/s | speed of sound (308.15 K, x1 = 0.29): 1422.7 ± 1.8 m/s | speed of sound (308.15 K, x1 = 0.3786): 1494 ± 1.9 m/s | speed of sound (308.15 K, x1 = 0.4825): 1569.6 ± 2 m/s | speed of sound (308.15 K, x1 = 0.6007): 1639.2 ± 2.3 m/s | speed of sound (308.15 K, x1 = 0.6711): 1675.9 ± 2.4 m/s | speed of sound (308.15 K, x1 = 0.7797): 1694.5 ± 2.6 m/s | speed of sound (308.15 K, x1 = 0.8297): 1748 ± 2.8 m/s | speed of sound (308.15 K, x1 = 0.9328): 1744.9 ± 3 m/s | speed of sound (308.15 K, x1 = 1): 1767.9 ± 3.2 m/s | mass density (310.65 K, x1 = 0.0492): 830.575 ± 1 kg/m3 | mass density (310.65 K, x1 = 0.0951): 872.975 ± 0.73 kg/m3 | mass density (310.65 K, x1 = 0.1987): 941.654 ± 0.62 kg/m3 | mass density (310.65 K, x1 = 0.29): 986.73 ± 0.53 kg/m3 | mass density (310.65 K, x1 = 0.3786): 1019.84 ± 0.55 kg/m3 | mass density (310.65 K, x1 = 0.4825): 1052.01 ± 0.71 kg/m3 | mass density (310.65 K, x1 = 0.6007): 1080.07 ± 0.99 kg/m3 | mass density (310.65 K, x1 = 0.6711): 1094.53 ± 1.2 kg/m3 | mass density (310.65 K, x1 = 0.7797): 1113.51 ± 1.6 kg/m3 | mass density (310.65 K, x1 = 0.8297): 1121.32 ± 1.8 kg/m3 | mass density (310.65 K, x1 = 0.9328): 1135.08 ± 2.2 kg/m3 | mass density (310.65 K, x1 = 1): 1141.96 ± 2.5 kg/m3 | speed of sound (310.65 K, x1 = 0.0492): 1145.6 ± 1.9 m/s | speed of sound (310.65 K, x1 = 0.0951): 1209.6 ± 1.7 m/s | speed of sound (310.65 K, x1 = 0.1987): 1327 ± 1.7 m/s | speed of sound (310.65 K, x1 = 0.29): 1416 ± 1.8 m/s | speed of sound (310.65 K, x1 = 0.3786): 1487.6 ± 1.9 m/s | speed of sound (310.65 K, x1 = 0.4825): 1563.5 ± 2 m/s | speed of sound (310.65 K, x1 = 0.6007): 1633.3 ± 2.3 m/s | speed of sound (310.65 K, x1 = 0.6711): 1670.1 ± 2.4 m/s | speed of sound (310.65 K, x1 = 0.7797): 1689 ± 2.6 m/s | speed of sound (310.65 K, x1 = 0.8297): 1742.3 ± 2.8 m/s | speed of sound (310.65 K, x1 = 0.9328): 1739.3 ± 3 m/s | speed of sound (310.65 K, x1 = 1): 1762.5 ± 3.2 m/s | mass density (313.15 K, x1 = 0.0492): 828.348 ± 1 kg/m3 | mass density (313.15 K, x1 = 0.0951): 870.876 ± 0.74 kg/m3 | mass density (313.15 K, x1 = 0.1987): 939.757 ± 0.62 kg/m3 | mass density (313.15 K, x1 = 0.29): 984.961 ± 0.53 kg/m3 | mass density (313.15 K, x1 = 0.3786): 1018.17 ± 0.55 kg/m3 | mass density (313.15 K, x1 = 0.4825): 1050.42 ± 0.71 kg/m3 | mass density (313.15 K, x1 = 0.6007): 1078.57 ± 0.99 kg/m3 | mass density (313.15 K, x1 = 0.6711): 1093.07 ± 1.2 kg/m3 | mass density (313.15 K, x1 = 0.7797): 1112.05 ± 1.6 kg/m3 | mass density (313.15 K, x1 = 0.8297): 1119.91 ± 1.8 kg/m3 | mass density (313.15 K, x1 = 0.9328): 1133.64 ± 2.2 kg/m3 | mass density (313.15 K, x1 = 1): 1140.55 ± 2.5 kg/m3 | speed of sound (313.15 K, x1 = 0.0492): 1137.8 ± 1.9 m/s | speed of sound (313.15 K, x1 = 0.0951): 1202.1 ± 1.7 m/s | speed of sound (313.15 K, x1 = 0.1987): 1320 ± 1.7 m/s | speed of sound (313.15 K, x1 = 0.29): 1409.3 ± 1.8 m/s | speed of sound (313.15 K, x1 = 0.3786): 1481.3 ± 1.9 m/s | speed of sound (313.15 K, x1 = 0.4825): 1557.5 ± 2 m/s | speed of sound (313.15 K, x1 = 0.6007): 1627.4 ± 2.3 m/s | speed of sound (313.15 K, x1 = 0.6711): 1664.3 ± 2.4 m/s | speed of sound (313.15 K, x1 = 0.7797): 1683.4 ± 2.6 m/s | speed of sound (313.15 K, x1 = 0.8297): 1736.7 ± 2.8 m/s | speed of sound (313.15 K, x1 = 0.9328): 1733.8 ± 3 m/s | speed of sound (313.15 K, x1 = 1): 1757.2 ± 3.2 m/s | mass density (315.65 K, x1 = 0.0492): 826.113 ± 1.1 kg/m3 | mass density (315.65 K, x1 = 0.0951): 868.768 ± 0.74 kg/m3 | mass density (315.65 K, x1 = 0.1987): 937.855 ± 0.62 kg/m3 | mass density (315.65 K, x1 = 0.29): 983.188 ± 0.53 kg/m3 | mass density (315.65 K, x1 = 0.3786): 1016.49 ± 0.55 kg/m3 | mass density (315.65 K, x1 = 0.4825): 1048.81 ± 0.71 kg/m3

From the NIST ThermoML archive (doi:10.1016/j.jct.2011.01.014)
